The target of assay [1] is T1, nuclear protein DNA-PKcs serine/threonine protein kinase (Homo sapiens, UniProt P78527).
T1 construct: adding nuclear proteins to the solid phase reaction system; endogenous in cells; host or cells: HepG2 human liver cancer cells (nuclear protein extract)
The assay can be described thus: DNA-PKcs kinase activity in nuclear protein of treated HepG2 cells. Format: cell-based. The settings on record: 24 hrs. As to the method:
The activity of nuclear protein DNA-PKcs serine/threonine protein kinase in human liver cancer cells HepG2 treated with 0, 10, 20, 40, 100 μmol/L 2-bromo-isovanillin for 24 hrs was determined by using […] DNA dependent protein kinase assay kit (Promega), according to the manufacturer's instructions, and the treatment with 100 μmol/L vanillin for the same period of time served as control. Basically, the assay was carried out by immobilizing the phosphorylation substrate specific to DNA-PKcs, i.e., a peptide derived from p53 protein onto a cellulose membrane, adding nuclear proteins to the solid phase reaction system, isotopically labeling the substrate by phosphorylation using γ-^32P ATP, removing non-specific signals after the isotope labeling, and visualizing the kinase activity upon X-ray film developing.

Assay [2] relates to human cervical cancer cell line HeLa. The assay can be described thus: Clonogenic assay, 6 days of continuous action, HeLa. Format: cell-based. The method, then: (§1) Human cervical cancer cell line HeLa, human liver cancer cell line HepG2/7221/7402, human ovarian cancer cell line HOC8/A2780, human glioma cell line BT325, lung cancer cell line A549, brain metastatic lung cancer cell line BT72 and normal human hepatic cell line LO2 were all grown in DMEM liquid medium supplemented with 10% newborn calf serum. Human leukemia cell line Jurkat was grown in 1640 medium supplemented with 10% newborn calf serum. The above cell lines were cultured in a CO2 incubator at 5% CO2 at 37° C.
(§2) By way of example, human cervical cancer cell line HeLa, lung cancer cell line A549, and ovarian cancer cell lines A2780 and HOC8 were used to determine the killing of cancer cells by 2-bromo-isovanillin for 6 days. Specifically, four groups were formed according to the type of the cancer cells. The cancer cells were diluted as appropriate, and were respectively plated into Petri dishes with a diameter of […], the amount of the cells adjusted depending on the concentration of 2-bromo-isovanillin to be added. Once adherence was achieved, each cell type received dosages of 0, 5, 10, 15, 20, 25, 30 and 35 μmol/L in triplicates. After 6 days of continuous action, the medium was replaced by a drug-free DMEM liquid medium. […] Then the cell clones were counted. The experimental data were expressed as the mean of 2-4 experiments and were plotted as a growth curve of cancer cells.

Assay [3] has as its system spindle structure in HepG2 cells. The assay can be described thus: Spindle structure by immunofluorescent labeling of tubulin, HepG2. It is filed as cell-based, human. The settings on record: HepG2, 40 μmol/L, 24 hrs. From the text:
3. […] The influence of 2-bromo-isovanillin on the spindle structure in HepG2 cells was further studied by means of in situ immunofluorescence hybridization by immunofluorescent labeling of tubulin. […] The cells with impaired spindle function could not undergo normal division, thereby leading to rapid cell death, i.e., mitotic catastrophe.

For assay [4], the system named is human cervical cancer cell line HeLa. The assay can be described thus: Radiosensitizing activity with 2 Gy Co-60 γ radiation, HeLa, MTT assay. Format: cell-based. The method, then: By way of example, human cervical cancer cell line HeLa was used to determine the radiosensitizing activity of 2-bromo-isovanillin.
Specifically, human cervical cancer cells HeLa were divided into six groups, diluted as appropriate, and plated into Petri dishes with a diameter of […]. The amount of cells plated in each Petri dish was 300/500 for 0 Gy group (without Co-60 γ radiation), or 400/800 for 2 Gy group. Once adherence was achieved, three groups were treated with 20 μmol/L 2-bromo-isovanillin (BVAN3208) for 0, 4 and 18 hrs, respectively and then irradiated with Co-60 γ ray at 2 Gy, followed by two weeks under conventional culturing conditions. As to the other three groups, one group was treated with 20 μmol/L 2-bromo-isovanillin (BVAN3208) for 72 hrs and then cultured for two weeks under conventional conditions, one group received irradiation with Co-60 γ ray at 2 Gy and then was cultured for two weeks under conventional conditions, and the remaining group as control received no treatment at all and was cultured for two weeks under conventional conditions. 48 hrs after irradiation with Co-60 γ ray, using MTT assay, the optical density (OD) values at 490 nm were measured and recorded, wherein the magnitude of OD value is indicative of cell number, i.e., cell proliferation. The results are shown in FIG. 5, wherein C represents the control group, R(2 Gy) represents the group treated with Co-60 γ ray alone, BVAN3208 represents the group treated with 20 μmol/L 2-bromo-isovanillin alone, and BVAN3208/0 h R, BVAN3208/4 h R and BVAN3208/18 h R respectively represent the groups treated with 20 μmol/L 2-bromo-isovanillin for 0, 4, 18 hrs before irradiation with Co-60 γ ray. The survival rates of the cancer cells treated with 2 Gy Co-60 γ ray radiation or 20 μmol/L 2-bromo-isovanillin for 72 hrs were 76% and 70%, respectively.

In assay [5] the test system is lung cancer cell line A549. In words: Clonogenic assay, 6 days of continuous action, A549. Format: cell-based. The method, then: as §1, §2
Assay [6] concerns human liver cancer cell line HepG2. In words: Clonogenic assay, HepG2 compared with normal hepatic cells LO2. It is filed as cell-based. The settings on record: 5-80 μmol/L, 24 hrs. The method, then: By way of example, human liver cancer cell line HepG2 and normal human hepatic cell line LO2 were used to study the inhibitory effect of 2-bromo-isovanillin on the growth of liver cancer cells and normal cells by clonogenic assay. Specifically, five groups were formed according to the drug concentration, and the liver cancer cells HepG2 and normal hepatic cells LO2 were respectively treated with 5, 10, 20, 40 and 80 μmol/L 2-bromo-isovanillin for 24 hrs. Then cell survival was measured by clonogenic assay (FIG. 8). In addition, the cell cycle profile and apoptotic effect were compared using flow cytometry.

Structures are written as SMILES.

On to `COc1ccc(C=O)c(Br)c1O` [2-bromo-isovanillin, 2-bromo-3-hydroxy-4-methoxybenzaldehyde], for which the “effect on DNA-PKcs kinase activity” value in assay [1] (HepG2, 20 μmol/L) is given as “significantly inhibited”. Further, the “inhibitory effect on DNA-PKcs kinase activity” value in assay [1] (HepG2, 40-100 μmol/L, compared with 20 μmol/L) was “more remarkable”. Besides, the survival rate result is on record as “lower than 10%” in assay [2] (20 μmol/L); 70% in assay [4] (20 μmol/L for 72 hrs alone, no radiation); “lower than 10%” in assay [5] (A549, 20 μmol/L). Moreover, the proliferation entry was “completely inhibited” in assay [2] (30 μmol/L) and “completely inhibited” in assay [5] (A549, 30 μmol/L). For the same compound, in assay [3], the “M phase cells with multiple centrosomes or destroyed spindle structure” value is listed as “more than 65%”. The “ratio of cells at mitotic phase” value in assay [3] is recorded as “significantly increased”. Moreover, the cell survival rate entry in assay [4] (20 μmol/L, 2 Gy radiation 4 hrs after administration) is reported as “about 51%”; in assay [4] (20 μmol/L, 2 Gy radiation 18 hrs after administration), approximately 21%; in assay [4] (20 μmol/L, 2 Gy radiation immediately (0 h) after administration) it was “about 51%”. The sensitization ratio in assay [4] (20 μmol/L, pretreatment 18 hrs prior to 2 Gy radiation) was 3.32. Moreover, the “killing effect on HepG2 compared with normal hepatic cells” value in assay [6] is given as “significantly higher”.

For the origin of these results see patent US7981939B2, “Application of 2-bromide-isovanillin for the manufacture of a medicament for anti-cancer or/and radiation/chemotherapy sensitization” (Institute of Radiation Medicine, Academy of Military …, priority 2005, dated 2011).
